Laboratory results from the NIST ThermoML archive (doi:10.1021/je301301j).

Test: molar heat capacity at constant pressure; xn = mol fraction of the nth substance listed
Settings: 313.15 K, Liquid, Flow calorimetry

C=CCCCC [hex-1-ene] + CCCCO
molar heat capacity at constant pressure [J/K/mol]
Settings	x2 = 0	x2 = 0.1001	x2 = 0.2	x2 = 0.3002	x2 = 0.3999	x2 = 0.5018	x2 = 0.5997	x2 = 0.7002	x2 = 0.7999	x2 = 0.9
100 kPa	188.8	204.1	208	209.8	210.3	205.3	203	200.2	198.3	193.4
5000 kPa	185.9	199.9	204.8	206.6	206.5	202.6	200.6	197.6	195.5	192.5
10000 kPa	183.1	196.1	201.3	203.2	203.8	199.9	197.8	195.2	193.1	190.4
15000 kPa	181.6	193.2	198.7	200.9	201.5	197.5	195.7	194	191.9	188
20000 kPa	179.6	191	196.2	198.2	199.5	194.1	193	192	190.4	186.5
25000 kPa	177.2	188.1	193.4	194.5	197	192.9	191.4	189.4	188.2	185
